The structures appear in SMILES notation. Structures can show the parent of a compound that is named as a salt. Where only a bound is given, the exact number is not on record here.

These results are taken from US10189782B2, “Derivatives of indole for the treatment of cancer, viral infections and lung diseases” (BIOKINESIS, priority 2012, dated 2019).

The first assay concerns the target T1, Human recombinant MKlp2 motor domain1-519, His tagged (Homo sapiens, UniProt O95235).
T1 construct: Human recombinant MKlp2 motor domain1-519, His tagged; His; purchased Cytoskeleton MP05
T1 sequence (O95235 1-519): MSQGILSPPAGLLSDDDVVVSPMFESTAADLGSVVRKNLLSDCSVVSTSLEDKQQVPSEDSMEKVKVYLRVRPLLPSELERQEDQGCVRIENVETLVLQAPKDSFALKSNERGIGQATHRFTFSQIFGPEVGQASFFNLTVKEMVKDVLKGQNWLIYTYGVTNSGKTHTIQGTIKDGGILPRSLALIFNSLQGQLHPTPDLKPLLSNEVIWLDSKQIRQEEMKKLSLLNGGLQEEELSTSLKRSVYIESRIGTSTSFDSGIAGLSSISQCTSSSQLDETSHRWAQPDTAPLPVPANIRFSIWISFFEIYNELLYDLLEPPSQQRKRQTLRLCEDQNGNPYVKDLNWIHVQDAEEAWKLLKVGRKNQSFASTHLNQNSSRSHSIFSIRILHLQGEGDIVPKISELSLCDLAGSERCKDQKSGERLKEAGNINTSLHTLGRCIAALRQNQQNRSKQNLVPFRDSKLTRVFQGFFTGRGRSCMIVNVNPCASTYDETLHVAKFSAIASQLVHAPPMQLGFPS
The experiment in a line: Microtubule stimulated ATPase activity of the MKlp2 motor domain (Kinesin ELIPA Assay Kit). The assay is classed as biochemical. The note with it: MKIp2 IC50 (μM), Table 3, 22° C. The protocol:
Evaluation of Inhibitory Effects on the Microtubule Stimulated ATPase Activity of the MKlp2 Motor Domain.
MKlp2 ATPase activity was measured by monitoring real time free phosphate generation using the Kinesin ELIPA Assay Kit. The assay is based upon an absorbance shift (330 nm-360 nm) that occurs when 2-amino-6-mercapto-7-methylpurine ribonucleoside (MESG) is catalytically converted to 2-amino-6-mercapto-7-methylpurine in the presence of inorganic phosphate (Pi). One molecule of Pi will yield one molecule of 2-amino-6-mercapto-7-methylpurine in an essentially irreversible reaction.
All experiments were performed at 22° C.
Condition 1, compound preparation.
The compounds were dissolved in DMSO at 30× the maximum concentration to be tested. […] DMSO solutions were pipetted directly into each well.
Condition 2, reaction's “motor mix”.
The following were mixed sequentially in the specified order at RT to obtain the “motor mix”.
20 mL: 15 mM Pipes-NaOH pH 7.0, 10 mM MgCl2, 30 μM Tx (Buffer 1).
10 mL: 5× MSEG (ELIPA 1 reagent, Cat. # BK051).
10 mL: 2.5 mg/mL porcine brain microtubules (3×10 mg Cat. # MT002-XL resuspended in 12 mL of Buffer 1).
0.5 mL: 100×PNP (ELIPA 2 reagent, cat. # BK051).
Condition 3, reaction initiation.
The motor mix was pipetted into each well to obtain 80% of total volume. The reaction was initiated by adding a 20% of total volume of 5 mM ATP into each well.
The reactions were measured in a SpectraMax M2 (Molecular Devices) set in kinetic mode and 360 nm absorbance wavelength. The start protocol was 5 second rapid circular mixing, 21 readings, 30 seconds apart.
With `COc1ccc2[nH]cc(C(C#N)=Cc3cccc(C#N)c3)c2c1` [W02010/150211-Example 30, reference compound], the IC50 – broadly, the concentration at which inhibition is half-maximal – was determined as 4.4 µM.

Consider `CCOc1ccc2[nH]cc(C(C#N)=Cc3cccnc3)c2c1` [W02010/150211-Example 22, reference compound], for which the IC50 amounted to 5.2 µM.

As for `COc1ccc2[nH]cc(C(C#N)=Cc3ccc(F)nc3)c2c1` [W02010/150211-Example 28, reference compound], the 50% inhibitory concentration (IC50) came out at 2.4 µM.

As for `COc1ccc2c(C(C#N)=Cc3cccnc3)c[nH]c2c1` [W02010/150211-Example 26, reference compound], the IC50 was 26.5 µM.

On to `COc1ccc2[nH]cc(C(C#N)=Cc3cnccc3Cl)c2c1` [W02010/150211-Example 47, reference compound], for which the IC50 stood at 1.6 µM.

Regarding `COc1ccc2[nH]cc(C(C#N)=Cc3cccnc3)c2c1` [W02010/150211-Example 4, reference compound], the IC50 was determined as 4.2 µM.

`COc1ccc2[nH]cc(C(C#N)=Cc3cnccc3C)c2c1` [W02010/150211-Example 31, reference compound]: the IC50 was determined as 2.3 µM.

As to `CC(C)Oc1ccc2[nH]cc(C(C#N)=Cc3cccnc3)c2c1` [W02010/150211-Example 23, reference compound], the IC50 worked out at 5.2 µM.

The assay is the same for the next values; noted with them: Table 3, 22° C., read-out: MKIp2 IC50.
In the case of `CN(C)c1ccncc1/C=C(\C#N)c1c[nH]c2ccc(Cl)cc12` [Example 6, (Z)-2-(5-chloro-1H-indol-3-yl)-3-(4-(dimethylamino)pyridin-3-yl)acrylonitrile], the concentration for half-maximal inhibition (IC50) stood at 0.5 µM.

Consider `CN(C)c1ccncc1/C=C(\C#N)c1c[nH]c2ccc(Cl)cc12` [Example 7, (Z)-2-(5-chloro-1H-indol-3-yl)-3-(4-(dimethylamino)pyridin-3-yl)acrylonitrile, Hydrochloride], for which the IC50 worked out at 0.8 µM.

In the case of `N#C/C(=C\c1cnccc1-c1ccc(C(F)(F)F)cc1)c1c[nH]c2ccc(Cl)cc12` [Example 26, (Z)-2-(5-chloro-1H-indol-3-yl)-3-(4-(4-(trifluoromethyl)phenyl)pyridin-3-yl)acrylonitrile], the IC50 turned out to be 0.5 µM.

Turning to `N#C/C(=C\c1cnccc1Sc1ccc(F)cc1)c1c[nH]c2ccc(Cl)cc12` [Example 27, (Z)-2-(5-chloro-1H-indol-3-yl)-3-(4-((4-fluorophenyl)thio)pyridin-3-yl)acrylonitrile], the IC50 turned out to be 0.3 µM.

Take `N#C/C(=C\c1cnccc1-c1cccc(Br)c1)c1c[nH]c2ccc(Cl)cc12` [Example 18, (Z)-3-(4-(3-bromophenyl)pyridin-3-yl)-2-(5-chloro-1H-indol-3-yl)acrylonitrile]: the IC50 was 0.3 µM.

As to `CCOc1ccncc1/C=C(\C#N)c1c[nH]c2ccc(Br)cc12` [Example 13, (Z)-2-(5-bromo-1H-indol-3-yl)-3-(4-ethoxypyridin-3-yl)acrylonitrile], the IC50 turned out to be 0.1 µM.

Turning to `N#C/C(=C\c1cc(C#N)ccc1Oc1ccc(F)cc1)c1c[nH]c2ccc(Br)cc12` [Example 37, (Z)-3-(2-(5-bromo-1H-indol-3-yl)-2-cyanovinyl)-4-(4-fluorophenoxy)benzonitrile], the IC50 was determined as 0.9 µM.

Take `COc1ccncc1/C=C(\C#N)c1c[nH]c2ccc(Cl)cc12` [Example 35, (Z)-2-(5-chloro-1H-indol-3-yl)-3-(4-methoxypyridin-3-yl)acrylonitrile, Hydrochloride]: the IC50 was less than 0.07 µM.

For the compound `N#C/C(=C\c1cnccc1Sc1ccccc1)c1c[nH]c2ccc(Br)cc12` [Example 19, (Z)-2-(5-bromo-1H-indol-3-yl)-3-(4-(phenylthio)pyridin-3-yl)acrylonitrile], the IC50 was found to be 0.3 µM.

Take `CCSc1ccc(C#N)cc1/C=C(\C#N)c1c[nH]c2ccc(Cl)cc12` [Example 42, (Z)-3-(2-(5-chloro-1H-indol-3-yl)-2-cyanovinyl)-4-(ethylthio)benzonitrile]: the IC50 amounted to 0.6 µM.

Take `CC(C)Oc1ccncc1/C=C(\C#N)c1c[nH]c2ccc(Br)cc12` [Example 14, (Z)-2-(5-bromo-1H-indol-3-yl)-3-(4-isopropoxypyridin-3-yl)acrylonitrile]: the 50% inhibitory concentration (IC50) is 0.2 µM.

With `N#C/C(=C\c1cnccc1Oc1ccccc1)c1c[nH]c2ccc(Cl)cc12` [Example 10, (Z)-2-(5-chloro-1H-indol-3-yl)-3-(4-phenoxypyridin-3-yl)acrylonitrile], the IC50 was found to be 0.3 µM.

`COc1ccncc1/C=C(\C#N)c1c[nH]c2cc(Br)ccc12` [Example 45, (Z)-2-(6-bromo-1H-indol-3-yl)-3-(4-methoxypyridin-3-yl)acrylonitrile]: the IC50 was determined as 0.2 µM.

Consider `N#C/C(=C\c1cnccc1Oc1ccccc1)c1c[nH]c2ccc(Br)cc12` [Example 11, (Z)-2-(5-bromo-1H-indol-3-yl)-3-(4-phenoxypyridin-3-yl)acrylonitrile], for which the IC50 is 0.5 µM.

As for `CN(C)c1ccc(C#N)cc1/C=C(\C#N)c1c[nH]c2ccc(Cl)cc12` [Example 41, (Z)-3-(2-(5-chloro-1H-indol-3-yl)-2-cyanovinyl)-4-(dimethylamino)benzonitrile], the half-inhibitory concentration (IC50) is 0.4 µM.

With `COC(=O)CC(=O)n1cc(/C(C#N)=C/c2cnccc2OC)c2cc(Br)ccc21` [Example 59, (Z)-methyl-3-(5-bromo-3-(1-cyano-2-(4-methoxypyridin-3-yl)vinyl)-1H-indol-1-yl)-3-oxopropanoate], the 50% inhibitory concentration (IC50) was 0.57 µM.

Consider `CCOc1ccncc1/C=C(\C#N)c1c[nH]c2ccc(OC)cc12` [Example 2, (Z)-3-(4-ethoxypyridin-3-yl)-2-(5-methoxy-1H-indol-3-yl)acrylonitrile], for which the IC50 was found to be 0.3 µM.

For `CCSc1ccncc1/C=C(\C#N)c1c[nH]c2ccc(Br)cc12` [Example 16, (Z)-2-(5-bromo-1H-indol-3-yl)-3-(4-(ethylthio)pyridin-3-yl)acrylonitrile], the IC50 was 0.3 µM.

For `N#C/C(=C\c1cnccc1-c1ccc(C(F)(F)F)cc1)c1c[nH]c2ccc(Br)cc12` [Example 25, (Z)-2-(5-bromo-1H-indol-3-yl)-3-(4-(4-(trifluoromethyl)phenyl)pyridin-3-yl)acrylonitrile], the IC50 was found to be 0.4 µM.

`COc1ccc(Sc2ccncc2/C=C(\C#N)c2c[nH]c3ccc(Br)cc23)cc1OC` [Example 21, (Z)-2-(5-bromo-1H-indol-3-yl)-3-(4-((3,4-dimethoxyphenyl)thio)pyridin-3-yl)acrylonitrile]: the IC50 was found to be 0.4 µM.

As for `N#C/C(=C\c1cnccc1Sc1ccccn1)c1c[nH]c2ccc(Cl)cc12` [Example 30, (Z)-2-(5-chloro-1H-indol-3-yl)-3-(4-(pyridin-2-ylthio)pyridin-3-yl)acrylonitrile], the IC50 turned out to be 0.3 µM.

Regarding `N#C/C(=C\c1cnccc1Sc1ccccn1)c1c[nH]c2ccc(Br)cc12` [Example 31, (Z)-2-(5-bromo-1H-indol-3-yl)-3-(4-(pyridin-2-ylthio)pyridin-3-yl)acrylonitrile], the IC50 was determined as 0.4 µM.

In the case of `CN(C)CCSc1ccncc1/C=C(\C#N)c1c[nH]c2ccc(Br)cc12` [Example 36], the IC50 was 0.3 µM.

`N#C/C(=C\c1cnccc1-c1cccc(Br)c1)c1c[nH]c2ccc(Br)cc12` [Example 17, (Z)-2-(5-bromo-1H-indol-3-yl)-3-(4-(3-bromophenyl)pyridin-3-yl)acrylonitrile]: the IC50 was 0.3 µM.

Consider `COc1ccncc1/C=C(\C#N)c1c[nH]c2cc(Cl)ccc12` [Example 47, (Z)-2-(6-chloro-1H-indol-3-yl)-3-(4-methoxypyridin-3-yl)acrylonitrile], for which the IC50 was determined as 0.2 µM.

As to `N#C/C(=C\c1cnccc1Oc1ccc(F)cc1)c1c[nH]c2ccc(Br)cc12` [Example 22, (Z)-2-(5-bromo-1H-indol-3-yl)-3-(4-(4-fluorophenoxy)pyridin-3-yl)acrylonitrile], the IC50 stood at 0.09 µM.

Consider `N#C/C(=C\c1cnccc1SCc1ccccc1)c1c[nH]c2ccc(Br)cc12` [Example 20, (Z)-3-(4-(benzylthio)pyridin-3-yl)-2-(5-bromo-1H-indol-3-yl)acrylonitrile], for which the IC50 amounted to 0.2 µM.

For the compound `N#C/C(=C\c1cnccc1-n1cncn1)c1c[nH]c2ccc(Cl)cc12` [Example 33, (Z)-3-(4-(1H-1,2,4-triazol-1-yl)pyridin-3-yl)-2-(5-chloro-1H-indol-3-yl)acrylonitrile], the IC50 was 0.1 µM.
